Assay type in all cases: cell-based, Bacillus megaterium
In assay [1] the test system is B. megaterium DSM319. The assay can be described thus: Biolog GenIII sole carbon source growth. The conditions noted are these: no metals added; Table 10. Here is the method:
(§1) Plates were incubated at 37° C. on a plate shaker at 200 rpm and assayed for growth using NADH-dependent colorimetric changes measured by OD490 on a microplate reader (BioTek Synergy 2; BioTek; Winooski, Vt.).

In assay [2] the test system is B. megaterium QM B1551. The experiment in a line: Biolog GenIII sole carbon source growth. Particulars: no metals added; Table 10. As to the method:
as §1

Assay [3] deals with B. megaterium SR7. The assay can be described thus: Biolog GenIII sole carbon source growth. The conditions noted are these: for Growth on Biolog sole carbon source, SR7: no metals added, Table 10; for Growth in carbon source Biolog plate, +Metals: trace metals-amended plate; for Growth in carbon source Biolog plate, +Metals / Growth in carbon source Biolog plate, I / Growth in carbon source Biolog plate, II: Table 11; for Growth in carbon source Biolog plate, I: unamended plate trial I; for Growth in carbon source Biolog plate, II: unamended plate trial II. Here is the method:
as §1

Assay [4] deals with B. megaterium SR7. The experiment in a line: SR7 antibiotic sensitivity in LB (OD600 vs unamended control). The conditions noted are these: for % Control: (OD600 AB/OD600 Control)*100 in LB, average n = 2, 24 hours, 37° C.; for Sensitivity: LB. As to the method:
To help guide optimization of growth conditions for strain SR7, physiological tests were conducted under aerobic conditions. To determine tolerance for pH, salinity and bicarbonate, high throughput culturing was done in 96 well plates and scored for growth by OD600 using a microplate reader (BioTek Synergy 2; BioTek; Winooski, Vt.). 200 uL LB solutions/well were inoculated in triplicate with 10^4 spores/ml (based on SR7 spore stock filter counts) and incubated on a plate rocker at 37° C. with unamended positive and cell-free negative LB controls. Tests for pH tolerance (pH 2-10) were conducted in LB medium amended with HCl or NaOH. The effect of salinity and bicarbonate on growth was determined by adding NaCl (1-10%) and NaHCO3 (0.1-0.5M), respectively, to LB media. Optimal SR7 growth temperature was tested by inoculating 10^4 spores/ml in 5 ml of LB in triplicate at temperatures of 9-55° C. Cultures and cell-free negative controls were incubated without shaking, with subsamples taken for periodic OD600 measurements. SR7 antibiotic sensitivity was determined by supplementing 5 ml LB with ampicillin (5-50 μg/ml), chloramphenicol (3.5-35 μg/ml), kanamycin (5-50 μg/ml), spectinomycin (10-100 μg/ml), streptomycin (10-100 μg/ml), or tetracycline (1.5-15 μg/ml).

Assay [5] has as its system B. megaterium SR7. The experiment in a line: Biolog GenIII Microplate growth sensitivity assay. As to sensitivity: key: S = sensitive; R = resistant. Particulars: for % Control: (OD490 AB/OD490 Control)*100 for Biolog, average n = 2, Biolog does not publish concentrations; for Sensitivity: Biolog, concentration not published; for SR7 growth inhibition in Biolog assays: result in words. Here is the method: as §1

The values below come from patent US10941379B2, “Microbial system for biosynthesis of natural and engineered products coupled to in situ extraction in supercritical CO2” (Massachusetts Institute of Technology, priority 2016, dated 2021).

Peptide text beside a SMILES is read from it.

With `OC[C@@H](O)[C@@H](O)[C@H](O)[C@H](O)CO` [D-Mannitol], in assay [1], the “Growth on Biolog sole carbon source, DSM319” value is “+++”. In assay [2], the “Growth on Biolog sole carbon source, QM B1551” value is recorded as “+”. Further, in assay [3], the “Growth on Biolog sole carbon source, SR7” value was “+”; the “Growth in carbon source Biolog plate, +Metals” value is on record as “+”; the “Growth in carbon source Biolog plate, I” value is listed as “+”; the “Growth in carbon source Biolog plate, II” value is “+”.

As to `N[C@@H](CC(=O)O)C(=O)O` [L-Aspartic Acid], in assay [1], the “Growth on Biolog sole carbon source, DSM319” value is on record as “+++”. In addition, the “Growth on Biolog sole carbon source, QM B1551” value in assay [2] is on record as “+”. Besides, in assay [3], the “Growth on Biolog sole carbon source, SR7” value is recorded as “+”; the “Growth in carbon source Biolog plate, +Metals” value was “+++”; the “Growth in carbon source Biolog plate, I” value is “+”; the “Growth in carbon source Biolog plate, II” value was “+”.

As to `O=C(O)[C@H](O)[C@@H](O)[C@H](O)[C@H](O)CO` [D-Gluconic Acid], the “Growth on Biolog sole carbon source, DSM319” value in assay [1] is recorded as “+++”. Moreover, the “Growth on Biolog sole carbon source, QM B1551” value in assay [2] is recorded as “+”. In addition, in assay [3], the “Growth on Biolog sole carbon source, SR7” value is given as “+”; the “Growth in carbon source Biolog plate, +Metals” value is given as “+++”; the “Growth in carbon source Biolog plate, I” value was “+”; the “Growth in carbon source Biolog plate, II” value is listed as “+”.

With `CC1(C)S[C@@H]2[C@H](NC(=O)[C@H](N)c3ccccc3)C(=O)N2[C@H]1C(=O)O` [Ampicilin], in assay [4] (50 ug/mL), the “% Control” value amounted to 8% and the Sensitivity entry is given as “S”.

In the case of `C[C@H]1[C@H](NC(=O)/C(=N\OC(C)(C)C(=O)O)c2csc(N)n2)C(=O)N1S(=O)(=O)O` [Aztreonam], in assay [5], the “% Control” value is 10% and the Sensitivity result is reported as “S”.

Consider `CN[C@@H]1[C@H](O)[C@H](NC)[C@H]2O[C@@]3(O)C(=O)C[C@@H](C)O[C@H]3O[C@@H]2[C@H]1O` [Spectinomycin], for which, in assay [4] (100 ug/mL), the “% Control” value is reported as 47% and the Sensitivity entry is “S/R”. For the same molecule, the “SR7 sensitivity to antibiotics” value in assay [4] (result in words, summary of Table 9) is “intermediate sensitivity”.

As to `O=C(N[C@H](CO)[C@H](O)c1ccc([N+](=O)[O-])cc1)C(Cl)Cl` [Chloramphenicol], in assay [4] (35 ug/mL), the “% Control” value worked out at 9% and the Sensitivity result was “S”.

As to `CCCCC(CC)CCC(CC(C)C)OS(=O)(=O)[O-].[Na+]` (centres unmarked) [Niaproof 4], in assay [5], the “% Control” value turned out to be 9%, the Sensitivity result is listed as “S” and the “SR7 growth inhibition in Biolog assays” value is “inhibited”.

`N[C@H](CO)C(=O)O` [D-Serine, reference compound]: in assay [5], the “% Control” value worked out at 10%, the Sensitivity entry is “S” and the “SR7 growth inhibition in Biolog assays” value is “inhibited”. Moreover, in assay [3], the “Growth in carbon source Biolog plate, +Metals” value is recorded as “−”; the “Growth in carbon source Biolog plate, I” value is “−”; the “Growth in carbon source Biolog plate, II” value is listed as “−”.

`CCn1cc(C(=O)O)c(=O)c2ccc(C)nc21` [Nalidixic Acid]: in assay [5], the “% Control” value amounted to 14% and the Sensitivity result is reported as “S”.

Turning to `CO[C@H]1C[C@H](O[C@H]2[C@H](C)[C@@H](O[C@@H]3O[C@H](C)C[C@H](N(C)C)[C@H]3OC(C)=O)[C@@H](C)C[C@@]3(CO3)C(=O)[C@H](C)[C@@H](OC(C)=O)[C@@H](C)[C@@H](C)OC(=O)[C@@H]2C)O[C@@H](C)[C@@H]1OC(C)=O` [Troleandomycin], in assay [5], the “% Control” value stood at 9% and the Sensitivity result is given as “S”.

As to `CN[C@H](CC(C)C)C(=O)N[C@H]1C(=O)N[C@@H](CC(N)=O)C(=O)N[C@H]2C(=O)N[C@H]3C(=O)N[C@H](C(=O)N[C@H](C(=O)O)c4cc(O)cc(O)c4-c4cc3ccc4O)[C@H](O)c3ccc(c(Cl)c3)Oc3cc2cc(c3O[C@@H]2O[C@H](CO)[C@@H](O)[C@H](O)[C@H]2O[C@H]2C[C@](C)(N)[C@H](O)[C@H](C)O2)Oc2ccc(cc2Cl)[C@H]1O` [Vancomycin], in assay [5], the “% Control” value came to 10% and the Sensitivity result was “S”.

For `CN(C)c1ccc(O)c2c1C[C@H]1C[C@H]3[C@H](N(C)C)C(O)=C(C(N)=O)C(=O)[C@@]3(O)C(O)=C1C2=O` [Minocycline], in assay [5], the Sensitivity result was “S”.

For the molecule `CO[C@H]1/C=C/O[C@@]2(C)Oc3c(C)c([O-])c4c(O)c(cc(O)c4c3C2=O)NC(=O)/C(C)=C\C=C\[C@H](C)[C@H](O)[C@@H](C)[C@@H](O)[C@@H](C)[C@H](OC(C)=O)[C@@H]1C.[Na+]` [Rifamycin SV], in assay [5], the “% Control” value was determined as 11% and the Sensitivity result is reported as “S”.

Turning to `[H]/N=C(/N)N[C@H]1[C@H](O)[C@@H](O)[C@H](O[C@@H]2O[C@@H](C)[C@](O)(C=O)[C@H]2O[C@@H]2O[C@@H](CO)[C@H](O)[C@@H](O)[C@@H]2NC)[C@@H](N/C(N)=N\[H])[C@@H]1O` [Streptomycin], in assay [4] (10 ug/mL), the “% Control” value was found to be 10% and the Sensitivity entry is recorded as “S”.

Regarding `OCC(O)CO` [Glycerol], in assay [3], the “Growth in carbon source Biolog plate, +Metals” value was “+”; the “Growth in carbon source Biolog plate, I” value is recorded as “+”; the “Growth in carbon source Biolog plate, II” value is “+”.

On to `CN(C)[C@@H]1C(O)=C(C(N)=O)C(=O)[C@@]2(O)C(O)=C3C(=O)c4c(O)cccc4[C@@](C)(O)[C@H]3C[C@@H]12` [Tetracycline], for which, in assay [4] (1.5 ug/mL), the “% Control” value was 11% and the Sensitivity result was “S”.

For `CCC[C@@H]1C[C@@H](C(=O)N[C@@H]([C@H]2O[C@H](SC)[C@H](O)[C@@H](O)[C@H]2O)[C@@H](C)O)N(C)C1` [Lincomycin], in assay [5], the “% Control” value came to 11% and the Sensitivity entry is given as “S”.

`O=C[C@H](O)[C@@H](O)[C@@H](O)[C@H](O)C(=O)O` [D-Galacturonic Acid]: in assay [3], the “Growth in carbon source Biolog plate, +Metals” value is listed as “−”; the “Growth in carbon source Biolog plate, I” value is listed as “−”; the “Growth in carbon source Biolog plate, II” value is given as “+”.

For `CC(=O)O[C@H]1C[C@@]2(C)[C@@H](C[C@@H](O)[C@H]3[C@@]4(C)CC[C@@H](O)[C@@H](C)[C@@H]4CC[C@@]32C)/C1=C(\CCC=C(C)C)C(=O)O` [Fusidic Acid], in assay [5], the “% Control” value is given as 9% and the Sensitivity entry is listed as “S”.

On to D-Turanose, for which, in assay [3], the “Growth in carbon source Biolog plate, +Metals” value is on record as “+++”; the “Growth in carbon source Biolog plate, I” value is given as “+”; the “Growth in carbon source Biolog plate, II” value is “+”.

`CC(=O)CC(=O)O` [Acetoacetic Acid]: in assay [3], the “Growth in carbon source Biolog plate, +Metals” value is “−”; the “Growth in carbon source Biolog plate, I” value is “−”; the “Growth in carbon source Biolog plate, II” value is recorded as “+”.

For `OC[C@H]1O[C@H](O[C@H]2O[C@H](CO)[C@@H](O)[C@H](O)[C@H]2O)[C@H](O)[C@@H](O)[C@@H]1O` [D-Trehalose], in assay [3], the “Growth in carbon source Biolog plate, +Metals” value is listed as “+”; the “Growth in carbon source Biolog plate, I” value is “−”; the “Growth in carbon source Biolog plate, II” value is “+”.

Tween 40: in assay [3], the “Growth in carbon source Biolog plate, +Metals” value was “−”; the “Growth in carbon source Biolog plate, I” value is “−”; the “Growth in carbon source Biolog plate, II” value is “+”.

On to `NC[C@H]1O[C@H](O[C@H]2[C@H](O)[C@@H](O[C@H]3O[C@H](CO)[C@@H](O)[C@H](N)[C@H]3O)[C@H](N)C[C@@H]2N)[C@H](O)[C@@H](O)[C@@H]1O` [Kanamycin], for which, in assay [4] (5 ug/mL), the “% Control” value worked out at 9% and the Sensitivity result is reported as “S”.

Take `NCC(=O)N1CCC[C@H]1C(=O)O` [Glycyl-L-Proline] (H-Gly-Pro-OH): in assay [3], the “Growth in carbon source Biolog plate, +Metals” value is “−”; the “Growth in carbon source Biolog plate, I” value is reported as “−”; the “Growth in carbon source Biolog plate, II” value was “−”.

Regarding `OC[C@H]1O[C@H](O[C@H]2[C@H](O)[C@@H](O)[C@H](O)O[C@@H]2CO)[C@H](O)[C@@H](O)[C@@H]1O` [D-Maltose], in assay [3], the “Growth on Biolog sole carbon source, SR7” value is “−”; the “Growth in carbon source Biolog plate, +Metals” value is given as “+”; the “Growth in carbon source Biolog plate, I” value was “−”; the “Growth in carbon source Biolog plate, II” value is reported as “+”.

Consider `O=C(O)Cc1ccc(O)cc1` [p-Hydroxy-Phenylacetic Acid], for which, in assay [3], the “Growth in carbon source Biolog plate, +Metals” value is “−”; the “Growth in carbon source Biolog plate, I” value is recorded as “−”; the “Growth in carbon source Biolog plate, II” value is listed as “−”.
